# According to patent publication US20210260010A1, “COMPOSITIONS AND METHODS FOR THE REDUCTION OR TREATMENT OF INFLAMMATION” (AXCELLA HEALTH INC., priority 2018, published 2021):
# What was measured:
# Assay type in all cases: cell-based
# [1] = tested on: MCP-1; test: MCP-1 chemokine secretion by TNFα-stimulated primary human hepatic stellate cells (ELISA); details: for MCP-1 chemokine secretion, per-cell normalized, fold change from plasma amino acid background: primary human hepatic stellate cells, two donors, TNFα 3 ng/mL, 12 hours
# Description: Primary human hepatic stellate cells were obtained from Samsara Sciences and grown in Complete HSC Medium to […] confluence in T75 or T150 flasks below passage 10 were seeded into 96-well plates and incubated for 6 hours at 37° C., 5% CO2 in a humidified incubator. After 6 hours, plates were removed from the incubator washed with DPBS and pretreated (±single amino acid dropout, ±supplemental amino acid dose; see experiment for medium composition) overnight, ˜14-15 hours. After overnight pretreatment, the medium was removed from the cells, and the same pretreatment medium, now supplemented with 3 ng/mL TNFα was applied. Plates were incubated for 12 hours at 37° C., 5% CO2. After 12 hour stimulus with TNFα, supernatant was removed and frozen at −80° C. in two separate aliquots. Plates were washed and incubated with CCK-8 viability reagent (Dojindo) for 1 hour. Viability was measured on the Synergy plate reader. Immediately, the medium was removed and the plates were fixed for immunofluorescence staining.
# Human CCL2/MCP1 and Human IL-6 were measured by ELISA (Human […] DuoSet ELISA, R&D Systems; Human IL-6 DuoSet ELISA, R&D Systems) at ⅕ and 1/20 dilution in 1× Reagent Diluent (Reagent Ancillary Kit 2, R&D Systems). Data were normalized to the specific per well cell density determined by Hoechst stained nuclei count.
# Tables 35-38 show per-cell normalized MCP-1 chemokine secretion in primary human hepatic stellate cells from two donors as a fold change from the plasma amino acid background. Statistical significance calculated by one-way ANOVA with Dunnett's multiple comparison test within each treatment group.
# [2] = tested on: IL-6; test: LPS-induced IL-6 secretion in primary human monocyte-derived macrophages (ELISA); details: for IL-6 Measurements Mean: LPS 0.15 ng/mL, baseline subtracted
# Description: (§1) Unpurified buffy coats (Research Blood Components) were carefully poured into 50 mL centrifuge tubes and diluted with room temperature Dulbecco's Phosphate Buffered Saline (dPBS) with Calcium and Magnesium (Gibco). Diluted buffy coats were further divided into four total 50 mL centrifuge tubes at 20 mL per tube. Lymphocyte Separation Medium (Corning) was carefully pipetted to the bottom of each centrifuge tube. Mixtures were centrifuged at 850× g for 32 minutes at 20° C. with 0 deceleration and acceleration.
# (§2) The PBMC layer was separated from other components after centrifugation and added to new 50 mL centrifuge tube containing 25 mL dPBS. Total volume was brought up to 50 mL with dPBS and centrifuged at 600×g for 10 minutes at 20° C. with acceleration of 9, deceleration of 5. Supernatant was carefully removed from cell pellets. The cell pellets were resuspended using 10 mL dPBS. Total volume was then brought up to 50 mL using dPBS and centrifuged at 450×g for 5 min at 20° C. with acceleration of 9, deceleration of 9. The supernatant removal and cell pellet resuspension was repeated again.
# (§3) The supernatant was then carefully removed from cell pellets. Cell pellets were resuspended in 10 mL dPBS without calcium or magnesium and filtered through a 70 uM cell strainer. The total PBMC number was determined using a Cellometer K2 automated cell counter. A total of 5E6 cells were saved for flow cytometric analysis. Remaining cells were centrifuged at 490×g for 5 minutes at 20° C. with acceleration of 9, deceleration of 9.
# (§4) CD14+ cells were selected using EasySep™ Human CD14 Positive Selection Kit II ([…] Technologies). Cells were resuspended in cold EasySep™ Buffer ([…] Technologies) at 1×10^8 cells/mL. A total of 100 uL/mL EasySep™ Human CD14 Positive Selection Cocktail II was added to the cell suspension, mixed, and incubated at room temperature for 10 minutes. A total of 100 uL/mL RapidSpheres were added to the mixture and incubated at room temperature for 3 minutes after mixing, then RoboSep buffer was added to bring up the total volume to 10 mL. The mixture in a 15 mL tube was placed in magnet and incubated at room temperature for 3 minutes. Supernatant was discarded and 10 mL fresh EasySep™ buffer was added to 15 mL tube. The addition of RoboSep buffer, mixing, and discarding of supernatant was repeated two more times.
# (§5) Negative and positive fractions were centrifuged at 490×g for 5 minutes at 20° C. with acceleration of 9, deceleration of 9, and resuspended in DMEM (Gibco) and 10% Heat Inactivated Fetal Bovine Serum (Atlanta Bio) and Penicillin/Streptomycin. Cells were counted and centrifuged again at 490× g for 5 minutes at 20° C. with acceleration of 9, deceleration of 9. After centrifugation, cell were resuspended in DMEM (Gibco) and 10% Heat Inactivated Fetal Bovine Serum (Atlanta Bio) and Penicillin/Streptomycin containing 500 U/mL […] and plated at 1-2×10^6 cells/mL on 10 cm tissue culture plates. Cells were kept in 37° C., 5% CO2 in between feedings/harvest.
# (§6) Cells were fed every 3-4 days by removing media and unattached cells, centrifuging at 490× g for 5 minutes at 20° C. with acceleration of 9, deceleration of 9, and resuspending in fresh DMEM (Gibco) and 10% Heat Inactivated Fetal Bovine Serum (Atlanta Bio) and Penicillin/Streptomycin containing GM-CSF. Resuspended cells were seeded back onto 10 cm tissue culture plates and incubated at 37° C., 5% CO2. Differentiated macrophages were used for subsequent experiments.
# (§7) Primary human PMBC derived macrophages were seeded on day 0 at 3.0E4 cells per well in 96-well microplates (ThermoFisher) in Dulbecco's Modified Eagle Medium (DMEM) (Gibco) supplemented with penicillin-streptomycin (Hyclone) and 10% heat inactivated fetal bovine serum (HI-FBS) (Atlanta Bio) and incubated overnight at 37° C., 5% CO2. On day 1, cells were washed once with 150 uL per well DPBS (Gibco) and treated with 75 uL of: • a. […]
# [3] = tested on: TNFα; test: LPS-induced TNFα secretion in primary human monocyte-derived macrophages (ELISA); design: TNFa Measurements Mean: unit not given here; details: baseline subtracted; for TNFa Measurements Mean: Donor 1, LPS 0.15 ng/mL
# Description: as §1, §2, §3, §4, §5, §6, §7
smiles,measurement,setting,value
"N=C(N)NCCC[C@H](N)C(=O)O [Arginine, L-Arginine]",Fold Change MCP1 Secretion Normalized Per Cell,"[1]; donor 3, Conc. 109 μM (plasma background, reference)",1.0000
same,Fold Change MCP1 Secretion Normalized Per Cell,"[1]; donor 3, Conc. 1088 μM",0.9435
same,Fold Change MCP1 Secretion Normalized Per Cell,"[1]; donor 3, Conc. 2720 μM",0.8821
same,Fold Change MCP1 Secretion Normalized Per Cell,"[1]; donor 3, Conc. 5440 μM",0.7840
same,Fold Change MCP1 Secretion Normalized Per Cell,"[1]; donor 4, Conc. 109 μM (plasma background, reference)",1.0000
same,Fold Change MCP1 Secretion Normalized Per Cell,"[1]; donor 4, Conc. 1088 μM",1.0453
same,Fold Change MCP1 Secretion Normalized Per Cell,"[1]; donor 4, Conc. 2720 μM",1.0446
same,Fold Change MCP1 Secretion Normalized Per Cell,"[1]; donor 4, Conc. 5440 μM",0.9456
same,"MCP-1 chemokine secretion, per-cell normalized, fold change from plasma amino acid background",[1],no significant impact
same,IL-6 Measurements Mean,"[2]; Donor 1, Conc. 109 μM (baseline)",0
same,IL-6 Measurements Mean,"[2]; Donor 1, Conc. 1088 μM",−181.36
same,IL-6 Measurements Mean,"[2]; Donor 1, Conc. 2720 μM",−186.57
same,IL-6 Measurements Mean,"[2]; Donor 1, Conc. 5440 μM",357.4394
same,IL-6 Measurements Mean,"[2]; Donor 2, Conc. 109 μM (baseline)",2.37E−15
same,IL-6 Measurements Mean,"[2]; Donor 2, Conc. 1088 μM",−9.701
same,IL-6 Measurements Mean,"[2]; Donor 2, Conc. 2720 μM",−13.6102
same,IL-6 Measurements Mean,"[2]; Donor 2, Conc. 5440 μM",−12.4164
same,IL-6 Measurements Mean,"[2]; Donor 3, Conc. 109 μM (baseline)",0
same,IL-6 Measurements Mean,"[2]; Donor 3, Conc. 1088 μM",31.5786
same,IL-6 Measurements Mean,"[2]; Donor 3, Conc. 2720 μM",−7.503
same,IL-6 Measurements Mean,"[2]; Donor 3, Conc. 5440 μM",−6.81
same,LPS-induced IL-6 secretion,"[2]; macrophages, Donor 1, 0.15 ng/mL LPS",increased
same,TNFa Measurements Mean,[3]; Conc. 109 μM (baseline),0
same,TNFa Measurements Mean,[3]; Conc. 1088 μM,−24.33
same,TNFa Measurements Mean,[3]; Conc. 2720 μM,5.12
same,TNFa Measurements Mean,[3]; Conc. 5440 μM,62.06
same,Donor 2 TNFa Measurements Mean,[3]; Conc. 109 μM (baseline),1.42E−14
same,Donor 2 TNFa Measurements Mean,[3]; Conc. 1088 μM,−12.7222
same,Donor 2 TNFa Measurements Mean,[3]; Conc. 2720 μM,−3.763
same,Donor 2 TNFa Measurements Mean,[3]; Conc. 5440 μM,−0.5738
same,Donor 3 TNFa Measurements Mean,[3]; Conc. 109 μM (baseline),3.55E−15
same,Donor 3 TNFa Measurements Mean,[3]; Conc. 1088 μM,3.131
same,Donor 3 TNFa Measurements Mean,[3]; Conc. 2720 μM,−0.9669
same,Donor 3 TNFa Measurements Mean,[3]; Conc. 5440 μM,−1.767
"CC(C)[C@H](N)C(=O)O [Valine, L-Valine]",Fold Change MCP1 Secretion Normalized Per Cell,"[1]; donor 3, Conc. 234 μM (plasma background, reference)",1.0000
same,Fold Change MCP1 Secretion Normalized Per Cell,"[1]; donor 3, Conc. 4684 μM",1.0630
same,Fold Change MCP1 Secretion Normalized Per Cell,"[1]; donor 3, Conc. 11710 μM",1.0204
same,Fold Change MCP1 Secretion Normalized Per Cell,"[1]; donor 3, Conc. 23420 μM",1.2651
same,Fold Change MCP1 Secretion Normalized Per Cell,"[1]; donor 4, Conc. 234 μM (plasma background, reference)",1.0000
same,"MCP-1 chemokine secretion, per-cell normalized, fold change from plasma amino acid background",[1],no significant impact
same,IL-6 Measurements Mean,"[2]; Donor 1, Conc. 234 μM (baseline)",0
same,IL-6 Measurements Mean,"[2]; Donor 1, Conc. 4684 μM",−85.9843
same,IL-6 Measurements Mean,"[2]; Donor 1, Conc. 11710 μM",−97.25
same,IL-6 Measurements Mean,"[2]; Donor 1, Conc. 23420 μM",−106.268
same,IL-6 Measurements Mean,"[2]; Donor 2, Conc. 234 μM (baseline)",−4.7E−15
same,IL-6 Measurements Mean,"[2]; Donor 2, Conc. 4684 μM",−4.528
same,IL-6 Measurements Mean,"[2]; Donor 2, Conc. 11710 μM",−1.196
same,IL-6 Measurements Mean,"[2]; Donor 2, Conc. 23420 μM",4.396
same,IL-6 Measurements Mean,"[2]; Donor 3, Conc. 234 μM (baseline)",4.26E−14
same,IL-6 Measurements Mean,"[2]; Donor 3, Conc. 4684 μM",−30.0609
same,IL-6 Measurements Mean,"[2]; Donor 3, Conc. 11710 μM",−43.8022
same,IL-6 Measurements Mean,"[2]; Donor 3, Conc. 23420 μM",−29.2004
same,TNFa Measurements Mean,[3]; Conc. 234 μM (baseline),0
same,TNFa Measurements Mean,[3]; Conc. 4684 μM,−40.37
same,TNFa Measurements Mean,[3]; Conc. 11710 μM,−41.77
same,TNFa Measurements Mean,[3]; Conc. 23420 μM,−14.98
same,Donor 2 TNFa Measurements Mean,[3]; Conc. 234 μM (baseline),−4.7E−15
same,Donor 2 TNFa Measurements Mean,[3]; Conc. 4684 μM,−0.00221
same,Donor 2 TNFa Measurements Mean,[3]; Conc. 11710 μM,−0.835
same,Donor 2 TNFa Measurements Mean,[3]; Conc. 23420 μM,−1.251
same,Donor 3 TNFa Measurements Mean,[3]; Conc. 234 μM (baseline),−2.4E−15
same,Donor 3 TNFa Measurements Mean,[3]; Conc. 4684 μM,0.126
same,Donor 3 TNFa Measurements Mean,[3]; Conc. 11710 μM,−2.599
same,Donor 3 TNFa Measurements Mean,[3]; Conc. 23420 μM,3.688
